The source made the active and inactive calls. The calls are words filed in the database; no cut-off is given here.
Tests used:
SK-N-AS [1] = assay: Growth inhibition of human SK-N-AS cells at 1 uM after 24 hrs by MTT assay relative to control; assay type: functional; conditions: read-out: GI
SK-N-AS [2] = assay: Growth inhibition of human SK-N-AS cells at 1 uM after 72 hrs by MTT assay relative to control; assay type: functional; conditions: read-out: GI
IMR-32 [3] = assay: Growth inhibition of human IMR32 cells at 0.1 uM after 24 hrs by MTT assay relative to control; assay type: functional; conditions: IMR-32, 24 h, read-out: GI
IMR-32 [4] = assay: Growth inhibition of human IMR32 cells at 0.1 uM after 72 hrs by MTT assay relative to control; assay type: functional; conditions: IMR-32, 72 h, read-out: GI
IMR-32 [5] = assay: Growth inhibition of human IMR32 cells at 0.4 uM after 72 hrs by MTT assay relative to control; assay type: functional; conditions: IMR-32, 72 h, read-out: GI
IMR-32 [6] = assay: Growth inhibition of human IMR32 cells at 0.01 uM after 72 hrs by MTT assay relative to control; assay type: functional; conditions: IMR-32, 72 h, read-out: GI
SK-N-AS [7] = assay: Cell cycle arrest in human SK-N-AS cells assessed as increase in G0/G1 cell population at 0.4 uM after 24 hrs by propidium iodide staining based flow cytometry relative to control; assay type: functional
SK-N-AS [8] = assay: Cell cycle arrest in human SK-N-AS cells assessed as increase in G0/G1 cell population at 0.4 uM after 48 hrs by propidium iodide staining based flow cytometry relative to control; assay type: functional
SK-N-AS [9] = assay: Cell cycle arrest in human SK-N-AS cells assessed as increase in G0/G1 cell population at 0.4 uM after 72 hrs by propidium iodide staining based flow cytometry relative to control; assay type: functional
SK-N-AS [10] = assay: Cell cycle arrest in human SK-N-AS cells assessed as decrease in S phase population at 0.4 uM after 24 hrs by propidium iodide staining based flow cytometry relative to control; assay type: functional
SK-N-AS [11] = assay: Cell cycle arrest in human SK-N-AS cells assessed as decrease in S phase population at 0.4 uM after 48 hrs by propidium iodide staining based flow cytometry relative to control; assay type: functional
SK-N-AS [12] = assay: Cell cycle arrest in human SK-N-AS cells assessed as decrease in G2/M phase population at 0.4 uM after 48 hrs by propidium iodide staining based flow cytometry relative to control; assay type: functional
SK-N-AS [13] = assay: Cell cycle arrest in human SK-N-AS cells assessed as decrease in G2/M phase population at 0.4 uM after 72 hrs by propidium iodide staining based flow cytometry relative to control; assay type: functional
SK-N-AS [14] = assay: Cell cycle arrest in human SK-N-AS cells at 4 uM by propidium iodide staining based flow cytometry; assay type: functional; conditions: TDE = time-dependent effect
SK-N-AS [15] = assay: Cell cycle arrest in human SK-N-AS cells assessed as increase in sub-G1 phase population at 0.4 uM after 24 hrs by propidium iodide staining based flow cytometry relative to control; assay type: functional
SK-N-AS [16] = assay: Cell cycle arrest in human SK-N-AS cells assessed as increase in sub-G1 phase population at 4 uM after 24 hrs by propidium iodide staining based flow cytometry relative to control; assay type: functional
SK-N-AS [17] = assay: Induction of apoptosis in human SK-N-AS cells assessed as increase in caspase-3 activity at 0.4 uM after 8 hrs by CPP32 based colorimetric assay relative to control; assay type: functional
SK-N-AS [18] = assay: Induction of apoptosis in human SK-N-AS cells assessed as increase in caspase-3 activity at 4 uM after 8 hrs by CPP32 based colorimetric assay relative to control; assay type: functional
SK-N-AS [19] = assay: Induction of apoptosis in human SK-N-AS cells assessed as increase in caspase-3 activity at 0.4 uM after 24 hrs by CPP32 based colorimetric assay relative to control; assay type: functional
SK-N-AS [20] = assay: Induction of apoptosis in human SK-N-AS cells assessed as increase in caspase-3 activity at 4 uM after 24 hrs by CPP32 based colorimetric assay relative to control; assay type: functional
SK-N-AS [21] = assay: Induction of apoptosis in human SK-N-AS cells assessed as increase in caspase-3 activity at 4 uM by CPP32 based colorimetric assay; assay type: functional, cell-based; conditions: TDE = time-dependent effect
SK-N-AS [22] = assay: Induction of apoptosis in human SK-N-AS cells assessed as decrease in Bcl-2 mRNA expression level after 24 hrs by real-time PCR method; assay type: functional, cell-based
SK-N-AS [23] = assay: Induction of apoptosis in human SK-N-AS cells assessed as decrease in Bcl-2 mRNA expression level after 8 hrs by real-time PCR method; assay type: functional, cell-based
SK-N-AS [24] = assay: Induction of apoptosis in human SK-N-AS cells assessed as decrease in Bcl-2 mRNA expression level at 0.4 uM after 24 hrs by real-time PCR method relative to control; assay type: functional; design: scale not given: the % may be the effect or the level left
SK-N-AS [25] = assay: Induction of apoptosis in human SK-N-AS cells assessed as decrease in Bcl-2 mRNA expression level at 4 uM after 24 hrs by real-time PCR method relative to control; assay type: functional; design: scale not given: the % may be the effect or the level left
IMR-32 [26] = assay: Induction of apoptosis in human IMR32 cells assessed as decrease in Bcl-2 mRNA expression level at 0.4 to 4 uM after 24 hrs by real-time PCR method relative to control; assay type: functional; design: scale not given: the % may be the effect or the level left
IMR-32 [27] = assay: Induction of apoptosis in human IMR32 cells assessed as decrease in Bcl-2 mRNA expression level at 0.4 to 4 uM after 8 hrs by real-time PCR method; assay type: functional, cell-based
IMR-32 [28] = assay: Reduction in N-myc mRNA expression level in human IMR32 cells at 4 uM after 24 hrs by real-time PCR method relative to control; assay type: functional; design: scale not given: the % may be the effect or the level left
IMR-32 [29] = assay: Reduction in N-myc mRNA expression level in human IMR32 cells at 0.4 to 4 uM after 8 hrs by real-time PCR method; assay type: functional, cell-based
SK-N-AS [30] = assay: Antitumor activity against human SK-N-AS cells xenografted in specific-pathogen-free KSN athymic nude mouse assessed as tumor growth inhibition at 12.5 mg/kg/day administered ip for 2 weeks measured on day 21 relative to control; assay type: functional; conditions: read-out: TGI
SK-N-AS [31] = assay: Antitumor activity against human SK-N-AS cells xenografted in specific-pathogen-free KSN athymic nude mouse assessed as tumor growth inhibition at 50 mg/kg/day administered ip for 2 weeks measured on day 21 relative to control; assay type: functional; conditions: read-out: TGI
SK-N-AS [32] = assay: Antitumor activity against human SK-N-AS cells xenografted in specific-pathogen-free KSN athymic nude mouse assessed as decrease in tumor weight at 12.5 mg/kg/day administered ip for 2 weeks measured on day 21 relative to control; assay type: functional; design: scale not given: the % may be the effect or the level left
SK-N-AS [33] = assay: Antitumor activity against human SK-N-AS cells xenografted in specific-pathogen-free KSN athymic nude mouse assessed as decrease in tumor weight at 50 mg/kg/day administered ip for 2 weeks measured on day 21 relative to control; assay type: functional; design: scale not given: the % may be the effect or the level left
Mus musculus = assay: Toxicity in specific-pathogen-free KSN athymic nude mouse xenografted with human SK-N-AS cells assessed as change in body weight at 12.5 to 50 mg/kg/day administered ip for 2 weeks measured on day 21; assay type: organism-based; conditions: in vivo, 336 h
SK-N-AS [34] = assay: Cell cycle arrest in human SK-N-AS cells assessed as accumulation at sub-G1 phase at 0.4 uM after 8 hrs by propidium iodide staining based flow cytometry (reference value: 1.13 +/- 0.13%); assay type: functional
SK-N-AS [35] = assay: Cell cycle arrest in human SK-N-AS cells assessed as accumulation at sub-G1 phase at 0.4 uM after 48 hrs by propidium iodide staining based flow cytometry (reference value: 1.13 +/- 0.13%); assay type: functional
SK-N-AS [36] = assay: Cell cycle arrest in human SK-N-AS cells assessed as accumulation at sub-G1 phase at 0.4 uM after 72 hrs by propidium iodide staining based flow cytometry (reference value: 1.13 +/- 0.13%); assay type: functional
SK-N-AS [37] = assay: Cell cycle arrest in human SK-N-AS cells assessed as accumulation at G0/G1 phase at 0.4 uM after 8 hrs by propidium iodide staining based flow cytometry (reference value: 46.14 +/- 3.63%); assay type: functional
SK-N-AS [38] = assay: Cell cycle arrest in human SK-N-AS cells assessed as accumulation at S phase at 0.4 uM after 8 hrs by propidium iodide staining based flow cytometry (reference value: 28.55 +/- 0.74%); assay type: functional
SK-N-AS [39] = assay: Cell cycle arrest in human SK-N-AS cells assessed as accumulation at S phase at 0.4 uM after 72 hrs by propidium iodide staining based flow cytometry (reference value: 28.55 +/- 0.74%); assay type: functional
SK-N-AS [40] = assay: Cell cycle arrest in human SK-N-AS cells assessed as accumulation at G2/M phase at 0.4 uM after 8 hrs by propidium iodide staining based flow cytometry (reference value: 25.31 +/- 2.89%); assay type: functional
SK-N-AS [41] = assay: Cell cycle arrest in human SK-N-AS cells assessed as accumulation at G2/M phase at 0.4 uM after 24 hrs by propidium iodide staining based flow cytometry (reference value: 25.31 +/- 2.89%); assay type: functional
SK-N-AS [42] = assay: Cell cycle arrest in human SK-N-AS cells at 4 uM up to 72 hrs by propidium iodide staining based flow cytometry; assay type: functional
IMR-32 [43] = assay: Induction of apoptosis in human IMR32 cells assessed as decrease in Bcl-2 mRNA expression level at 4 uM after 24 hrs by real-time PCR method relative to control; assay type: functional; design: scale not given: the % may be the effect or the level left
IMR-32 [44] = assay: Induction of apoptosis in human IMR32 cells assessed as decrease in Bcl-2 mRNA expression level at 4 uM after 8 hrs by real-time PCR method; assay type: functional, cell-based
IMR-32 [45] = assay: Reduction in N-myc mRNA expression level in human IMR32 cells at 4 uM after 8 hrs by real-time PCR method; assay type: functional, cell-based

Work on CCCCCCCCCCCCNc1ccc(O)cc1 yielded an inhibition of growth at 1 µM (SK-N-AS [1]) of 82%, an inhibition of growth at 1 µM (SK-N-AS [2]) of 83 to 90% and an inhibition of growth at 0.1 µM (IMR-32 [3]) of 78%. It also gave an inhibition of growth at 0.1 µM (IMR-32 [4]) of 92%, an inhibition of growth at 0.4 µM (IMR-32 [5]) of 100% and an inhibition of growth at 0.01 µM (IMR-32 [6]) of 15%. The “fold change (FC)” value (SK-N-AS [7]) was 1.18, the “fold change (FC)” value (SK-N-AS [8]) was 1.18 and the “fold change (FC)” value (SK-N-AS [9]) was 1.17. For the same compound, the “fold change (FC)” value (SK-N-AS [10]) was 0.73, the “fold change (FC)” value (SK-N-AS [11]) was 0.89 and the “fold change (FC)” value (SK-N-AS [12]) was 0.79. For the same compound, the “fold change (FC)” value (SK-N-AS [13]) was 0.68, the Activity (SK-N-AS [14]) was “Tde” and the “fold change (FC)” value (SK-N-AS [15]) was 3. For the same compound, the “fold change (FC)” value (SK-N-AS [16]) was 23, the “fold change (FC)” value (SK-N-AS [17]) was 1.6 and the “fold change (FC)” value (SK-N-AS [18]) was 3.6. The “fold change (FC)” value (SK-N-AS [19]) was 5.3, the “fold change (FC)” value (SK-N-AS [20]) was 12 and the Activity (SK-N-AS [21]) was “Tde”. For the same compound, the Activity (SK-N-AS [22]) was “Dose-dependent effect”, the Activity (SK-N-AS [23]) was “inactive” and the Activity (SK-N-AS [24]) was 35%. The Activity (SK-N-AS [25]) was 19%, the Activity (IMR-32 [26]) was 63% and the Activity (IMR-32 [27]) was “inactive”. For the same compound, the Activity (IMR-32 [28]) was 52%, the Activity (IMR-32 [29]) was “inactive” and the inhibition in vivo at 12.5 mg/kg/day (SK-N-AS [30]) was 40%. For the same compound, the inhibition in vivo at 50 mg/kg/day (SK-N-AS [31]) was 58%, the Activity (SK-N-AS [32]) was 33% and the Activity (SK-N-AS [33]) was 37%. For the same compound, the Activity (Mus musculus) was “Non-Toxic”, the Activity (SK-N-AS [34]) was 1.19% and the Activity (SK-N-AS [35]) was 5.57%. It also gave an Activity (SK-N-AS [36]) of 9.78%, an Activity (SK-N-AS [37]) of 47.04% and an Activity (SK-N-AS [38]) of 22.4%. The Activity (SK-N-AS [39]) was 28.8%, the Activity (SK-N-AS [40]) was 30.56% and the Activity (SK-N-AS [41]) was 24.84%.

CC1=C(/C=C/C(C)=C/C=C/C(C)=C/C(=O)Nc2ccc(O)cc2)C(C)(C)CCC1 [FENRETINIDE] gave an inhibition of growth at 1 µM (SK-N-AS [1]) of 2%, an inhibition of growth at 1 µM (SK-N-AS [2]) of 10% and an inhibition of growth at 0.1 µM (IMR-32 [3]) of 4%. The inhibition of growth at 0.1 µM (IMR-32 [4]) was 17%, the inhibition of growth at 0.4 µM (IMR-32 [5]) was 27% and the inhibition of growth at 0.01 µM (IMR-32 [6]) was 15%. The Activity (SK-N-AS [42]) was “Active”, the “fold change (FC)” value (SK-N-AS [16]) was 5 and the “fold change (FC)” value (SK-N-AS [20]) was 4.7. For the same compound, the Activity (SK-N-AS [21]) was “Tde”, the Activity (SK-N-AS [25]) was 62% and the Activity (IMR-32 [43]) was 69%. For the same compound, the Activity (IMR-32 [44]) was “inactive”, the Activity (IMR-32 [28]) was 27% and the Activity (IMR-32 [45]) was “inactive”.

CCCCCCCCCCNc1ccc(O)cc1 was tested, and the inhibition of growth at 1 µM (SK-N-AS [1]) was 44% and the inhibition of growth at 1 µM (SK-N-AS [2]) was 60%.

Source: ChEMBL document CHEMBL4043234, “Anticancer efficacy of p-dodecylaminophenol against high-risk and refractory neuroblastoma cells in vitro and in vivo” (Bioorg Med Chem Lett, 2017)
